From paper PMC11855478, “Bicyclic N,S-Acetals Containing Fused Cysteine-Amide System as New Heterocyclic Class Targeting Human Farnesyltransferase (FTase-h)” (International Journal of Molecular Sciences, 2025)

Key:
[1] = system: panel of 60 human cancer cell lines; experiment: NCI 60 cell panel one dose screen (whole panel); type: cell-based; parameters: Delta (One Dose Mean Graph): unit not given here; details: 1.00E-5 Molar one dose; for Range (One Dose Mean Graph): in % (unit assumed); for Mean Growth Percent: mean over tested cell lines
In short: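 Sulforhodamine B read-out after 48 h treatment at one high dose (10 µM), run on the full 60-line NCI human tumour cell panel.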

SF-295 (CNS Cancer) = experiment: NCI one dose, SF-295; type: cell-based, human; details: SF-295, 1.00E-5 Molar one dose
In short: (§1)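 An SRB-based cytotoxicity protocol was used, with 48 h treatment of the 60 human tumour lines screened at the National Cancer Institute.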

SK-MEL-2 (Melanoma) = experiment: NCI one dose, SK-MEL-2; type: cell-based, human; details: SK-MEL-2, 1.00E-5 Molar one dose
In short: (§2)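 NCI-run assay on its 60 human cancer cell lines, cytotoxicity determined via sulforhodamine B after 48 h of exposure.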

[2] = system: A549/ATCC (Non-Small Cell Lung Cancer); experiment: NCI one dose, A549/ATCC; type: cell-based, human; details: 1.00E-5 Molar one dose
In short: as §2

786-0 (Renal Cancer) = experiment: NCI one dose, 786-0; type: cell-based, human; details: 786-0, 1.00E-5 Molar one dose
In short: as §2

HS 578T (Breast Cancer) = experiment: NCI one dose, HS 578T; type: cell-based, human; details: 1.00E-5 Molar one dose
In short: as §2

SF-539 (CNS Cancer) = experiment: NCI one dose, SF-539; type: cell-based, human; details: SF-539, 1.00E-5 Molar one dose
In short: as §2

CCRF-CEM (Leukemia) = experiment: NCI one dose, CCRF-CEM; type: cell-based, human; details: 1.00E-5 Molar one dose
In short: as §2

[3] = system: NCI-H23 (Non-Small Cell Lung Cancer); experiment: NCI one dose, NCI-H23; type: cell-based, human; details: NCI-H23, 1.00E-5 Molar one dose
In short: as §2

SR (Leukemia) = experiment: NCI one dose, SR; type: cell-based, human; details: 1.00E-5 Molar one dose
Procedure: (§3) 3.4. Cell Proliferation Assay
(§4) Selected compounds were tested on a panel of 60 human cancer cell lines at the National Cancer Institute (NCI), Germantown, MD, USA. The cytotoxicity studies were conducted using a 48 h exposure protocol using the sulfo-rhodamine B assay.

K-562 leukaemia cells = experiment: NCI one dose, K-562; type: cell-based, human; details: K-562, 1.00E-5 Molar one dose
In short: as §2

COLO 205 (Colon Cancer) = experiment: NCI one dose, COLO 205; type: cell-based, human; details: COLO 205, 1.00E-5 Molar one dose
Procedure: as §3, §4

OVCAR-5 (Ovarian Cancer) = experiment: NCI one dose, OVCAR-5; type: cell-based, human; details: OVCAR-5, 1.00E-5 Molar one dose
In short: as §2

MOLT-4 (Leukemia) = experiment: NCI one dose, MOLT-4; type: cell-based, human; details: MOLT-4, 1.00E-5 Molar one dose
In short: as §2

M14 (Melanoma) = experiment: NCI one dose, M14; type: cell-based, human; details: M14, 1.00E-5 Molar one dose
In short: as §2

OVCAR-8 (Ovarian Cancer) = experiment: NCI one dose, OVCAR-8; type: cell-based, human; details: OVCAR-8, 1.00E-5 Molar one dose
In short: as §1

[4] = system: HOP-92 (Non-Small Cell Lung Cancer); experiment: NCI one dose, HOP-92; type: cell-based, human; details: HOP-92, 1.00E-5 Molar one dose
In short: as §2

HT29 (Colon Cancer) = experiment: NCI one dose, HT29; type: cell-based, human; details: HT29, 1.00E-5 Molar one dose
In short: as §2

[5] = system: NCI-H322M (Non-Small Cell Lung Cancer); experiment: NCI one dose, NCI-H322M; type: cell-based, human; details: 1.00E-5 Molar one dose
In short: as §2

OVCAR-4 (Ovarian Cancer) = experiment: NCI one dose, OVCAR-4; type: cell-based, human; details: OVCAR-4, 1.00E-5 Molar one dose
In short: as §2

[6] = system: MDA-MB-231/ATCC (Breast Cancer); experiment: NCI one dose, MDA-MB-231/ATCC; type: cell-based, human; details: 1.00E-5 Molar one dose
In short: as §2

[7] = system: EKVX (Non-Small Cell Lung Cancer); experiment: NCI one dose, EKVX; type: cell-based, human; details: 1.00E-5 Molar one dose
In short: as §2

SNB-19 (CNS Cancer) = experiment: NCI one dose, SNB-19; type: cell-based, human; details: SNB-19, 1.00E-5 Molar one dose
In short: as §2

UACC-62 (Melanoma) = experiment: NCI one dose, UACC-62; type: cell-based, human; details: UACC-62, 1.00E-5 Molar one dose
In short: as §2

U251 (CNS Cancer) = experiment: NCI one dose, U251; type: cell-based, human; details: U251, 1.00E-5 Molar one dose
In short: as §2

IGROV1 (Ovarian Cancer) = experiment: NCI one dose, IGROV1; type: cell-based, human; details: IGROV1, 1.00E-5 Molar one dose
In short: as §2

HCT-15 (Colon Cancer) = experiment: NCI one dose, HCT-15; type: cell-based, human; details: HCT-15, 1.00E-5 Molar one dose
In short: as §2

RXF 393 (Renal Cancer) = experiment: NCI one dose, RXF 393; type: cell-based, human; details: RXF 393, 1.00E-5 Molar one dose
In short: as §2

MALME-3M (Melanoma) = experiment: NCI one dose, MALME-3M; type: cell-based, human; details: 1.00E-5 Molar one dose
In short: as §1

SK-MEL-5 (Melanoma) = experiment: NCI one dose, SK-MEL-5; type: cell-based, human; details: SK-MEL-5, 1.00E-5 Molar one dose
In short: as §2

ACHN (Renal Cancer) = experiment: NCI one dose, ACHN; type: cell-based, human; details: 1.00E-5 Molar one dose
In short: as §1

A498 (Renal Cancer) = experiment: NCI one dose, A498; type: cell-based, human; details: A498, 1.00E-5 Molar one dose
In short: as §2

HCT-116 (Colon Cancer) = experiment: NCI one dose, HCT-116; type: cell-based, human; details: HCT-116, 1.00E-5 Molar one dose
In short: as §2

COc1ccc(CNC(=O)[C@@H]2CS[C@H]3c4ccccc4C(=O)N23)cc1OC [4aI]
Delta (One Dose Mean Graph) [1]: 34.91
Range (One Dose Mean Graph) [1]: 52.35
Mean Growth Percent [1]: 98.56%
Growth Percent (SF-295 (CNS Cancer)): 101.16%
Growth Percent (SK-MEL-2 (Melanoma)): 80.08%
Growth Percent [2]: 74.91%
Growth Percent (786-0 (Renal Cancer)): 106.53%
Growth Percent (HS 578T (Breast Cancer)): 98.06%
Growth Percent (SF-539 (CNS Cancer)): 102.96%
Growth Percent (CCRF-CEM (Leukemia)): 94.08%
Growth Percent [3]: 92.75%
Growth Percent (SR (Leukemia)): 74.16%
Growth Percent (K-562 leukaemia cells): 84.27%
Growth Percent (COLO 205 (Colon Cancer)): 111.84%
Growth Percent (OVCAR-5 (Ovarian Cancer)): 102.57%
Growth Percent (MOLT-4 (Leukemia)): 99.18%
Growth Percent (M14 (Melanoma)): 107.33%
Growth Percent (OVCAR-8 (Ovarian Cancer)): 88.68%
Growth Percent [4]: 93.36%
Growth Percent (HT29 (Colon Cancer)): 80.71%
Growth Percent [5]: 101.37%
Growth Percent (OVCAR-4 (Ovarian Cancer)): 111.31%
Growth Percent [6]: 102.55%
Growth Percent [7]: 114.59%
Growth Percent (SNB-19 (CNS Cancer)): 104.62%
Growth Percent (UACC-62 (Melanoma)): 98.01%
Growth Percent (U251 (CNS Cancer)): 93.84%
Growth Percent (IGROV1 (Ovarian Cancer)): 109.87%
Growth Percent (HCT-15 (Colon Cancer)): 109.55%
Growth Percent (RXF 393 (Renal Cancer)): 110.33%
Growth Percent (MALME-3M (Melanoma)): 102.18%
Growth Percent (SK-MEL-5 (Melanoma)): 102.31%
Growth Percent (ACHN (Renal Cancer)): 105.56%
Growth Percent (A498 (Renal Cancer)): 89.23%
Growth Percent (HCT-116 (Colon Cancer)): 98.84%

C[C@@]12SC[C@@H](C(=O)NCc3ccc(Cl)cc3Cl)N1C(=O)c1ccccc12 [4bH]
Delta (One Dose Mean Graph) [1]: 23.83
Range (One Dose Mean Graph) [1]: 40.77
Mean Growth Percent [1]: 95.56%
Growth Percent (SF-295 (CNS Cancer)): 98.60%
Growth Percent (SK-MEL-2 (Melanoma)): 92.79%
Growth Percent [2]: 77.42%
Growth Percent (786-0 (Renal Cancer)): 103.58%
Growth Percent (HS 578T (Breast Cancer)): 91.90%
Growth Percent (SF-539 (CNS Cancer)): 100.42%
Growth Percent (CCRF-CEM (Leukemia)): 84.65%
Growth Percent [3]: 94.51%
Growth Percent (SR (Leukemia)): 88.00%
Growth Percent (K-562 leukaemia cells): 79.34%
Growth Percent (COLO 205 (Colon Cancer)): 109.32%
Growth Percent (OVCAR-5 (Ovarian Cancer)): 99.53%
Growth Percent (MOLT-4 (Leukemia)): 83.18%
Growth Percent (M14 (Melanoma)): 108.31%
Growth Percent (OVCAR-8 (Ovarian Cancer)): 93.06%
Growth Percent [4]: 106.23%
Growth Percent (HT29 (Colon Cancer)): 83.74%
Growth Percent [5]: 92.74%
Growth Percent (OVCAR-4 (Ovarian Cancer)): 93.22%
Growth Percent [6]: 99.81%
Growth Percent [7]: 112.50%
Growth Percent (SNB-19 (CNS Cancer)): 100.91%
Growth Percent (UACC-62 (Melanoma)): 81.85%
Growth Percent (U251 (CNS Cancer)): 90.46%
Growth Percent (IGROV1 (Ovarian Cancer)): 100.21%
Growth Percent (HCT-15 (Colon Cancer)): 105.31%
Growth Percent (RXF 393 (Renal Cancer)): 102.82%
Growth Percent (MALME-3M (Melanoma)): 108.23%
Growth Percent (SK-MEL-5 (Melanoma)): 92.84%
Growth Percent (ACHN (Renal Cancer)): 106.47%
Growth Percent (A498 (Renal Cancer)): 77.10%
Growth Percent (HCT-116 (Colon Cancer)): 96.09%

COc1ccccc1CNC(=O)[C@@H]1CS[C@H]2c3ccccc3C(=O)N12 [4aG]
Delta (One Dose Mean Graph) [1]: 31.67
Range (One Dose Mean Graph) [1]: 50.93
Mean Growth Percent [1]: 101.60%
Growth Percent (SF-295 (CNS Cancer)): 100.33%
Growth Percent (SK-MEL-2 (Melanoma)): 96.50%
Growth Percent [2]: 78.79%
Growth Percent (786-0 (Renal Cancer)): 107.93%
Growth Percent (HS 578T (Breast Cancer)): 96.02%
Growth Percent (SF-539 (CNS Cancer)): 103.40%
Growth Percent (CCRF-CEM (Leukemia)): 101.17%
Growth Percent [3]: 106.16%
Growth Percent (SR (Leukemia)): 83.51%
Growth Percent (K-562 leukaemia cells): 81.36%
Growth Percent (COLO 205 (Colon Cancer)): 111.29%
Growth Percent (OVCAR-5 (Ovarian Cancer)): 112.94%
Growth Percent (MOLT-4 (Leukemia)): 97.42%
Growth Percent (M14 (Melanoma)): 104.36%
Growth Percent (OVCAR-8 (Ovarian Cancer)): 96.60%
Growth Percent [4]: 102.49%
Growth Percent (HT29 (Colon Cancer)): 77.01%
Growth Percent [5]: 100.55%
Growth Percent (OVCAR-4 (Ovarian Cancer)): 106.91%
Growth Percent [6]: 109.17%
Growth Percent [7]: 106.79%
Growth Percent (SNB-19 (CNS Cancer)): 107.13%
Growth Percent (UACC-62 (Melanoma)): 103.22%
Growth Percent (U251 (CNS Cancer)): 99.09%
Growth Percent (IGROV1 (Ovarian Cancer)): 109.59%
Growth Percent (HCT-15 (Colon Cancer)): 107.09%
Growth Percent (RXF 393 (Renal Cancer)): 114.62%
Growth Percent (MALME-3M (Melanoma)): 108.91%
Growth Percent (SK-MEL-5 (Melanoma)): 103.84%
Growth Percent (ACHN (Renal Cancer)): 109.98%
Growth Percent (A498 (Renal Cancer)): 84.76%
Growth Percent (HCT-116 (Colon Cancer)): 105.23%
